Collision cross section data for 50 compounds are collected here from the supplement of paper PMC7455731.

The data set in a line: collision cross section (DTIM-MS, N2); higher = larger ion. Here is the method:
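Collision cross section (CCS) of drug and natural-product chemical standards (validation set 2, measured in this paper). Three independent measurements were made across 2 months; the value taken is their mean (avg_ccs), for the ion adduct given.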

`COc1ccc(CC2c3cc(Oc4cc(CC5c6cc(OC)c(OC)cc6CCN5C)ccc4O)c(OC)cc3CCN2C)cc1` (stereo not drawn) [Neferine]: the collision cross section reads like this: (ion adduct: [M+H]+) 242.9 Å²; (ion adduct: [M-H]-) 252.96 Å².
Compound `COc1ccc([C@@H]2CC(=O)c3c(O)cc(O[C@@H]4O[C@H](CO)[C@@H](O)[C@H](O)[C@H]4O[C@@H]4O[C@@H](C)[C@H](O)[C@@H](O)[C@H]4O)cc3O2)cc1O` [Neohesperidin] registered a collision cross section (ion adduct: [M-H]-) of 229.5 Å².
As to `COc1ccc(CCC(=O)c2c(O)cc(O[C@@H]3O[C@H](CO)[C@@H](O)[C@H](O)[C@H]3O[C@@H]3O[C@@H](C)[C@H](O)[C@@H](O)[C@H]3O)cc2O)cc1O` [Neosperidin dihydrochalcone], under “ion adduct: [M+H]+”, the collision cross section is reported as 233.96 Å².
On the same count and under the same terms, with `NC(=O)c1cccnc1` [Nicotinamide] the figure was 125.25 Å².
As for `CC(=O)OC5CC(=O)O[C@@](C)(C)[C@@H]6CC(=O)[C@]3(C)[C@H](CC[C@@]2(C)[C@@H](OC(=O)[C@H]1O[C@]123)c4ccoc4)[C@@]56C` (stereo partly drawn) [Nomilin], the collision cross section is on record as 217.15 Å² (ion adduct: [M+H]+) and 219.9 Å² (ion adduct: [M-H]-).
With `COc1cc2c3c(c1OC)-c1ccccc1C[C@H]3N(C)CC2` [Nuciferine], under “ion adduct: [M+H]+”, the collision cross section is reported as 172.41 Å².
In the case of `COc1c(O)c(C)cc2c1C(=O)c1c(O)cccc1C2=O` [Obtusifolin], the collision cross section (ion adduct: [M+H]+) is 158.75 Å² and the collision cross section (ion adduct: [M-H]-) came to 160.85 Å².
For the setting “ion adduct: [M-H]-”, `C/C=C1/[C@H](O[C@@H]2O[C@H](CO)[C@@H](O)[C@H](O)[C@H]2O)OC=C(C(=O)OC)[C@H]1CC(=O)OCCc1ccc(O)c(O)c1` [Oleuropein] registered a collision cross section of 217.92 Å².
As to `O=C(Nc1ccc(O)cc1)c1ccccc1O` [Osalmid], the collision cross section runs as follows: (ion adduct: [M+H]+) 151.37 Å²; (ion adduct: [M-H]-) 150.88 Å².
For the compound `CC1(C)CCC[C@](C)([C@H]2CC[C@]3(C)[C@@H]2[C@H](O)C[C@@H]2[C@@]4(C)CC[C@H](O)C(C)(C)[C@@H]4CC[C@]23C)O1` [Panaxadiol], under “ion adduct: [M+H]+”, the collision cross section is recorded as 218.82 Å².
Consider `C=C1C(=O)O[C@H]2[C@H]1CC/C(C)=C\CC[C@@]1(C)O[C@@H]21` [Parthenolide], for which the collision cross section (ion adduct: [M+H]+) is listed as 154.23 Å².
Turning to `C=C(C)C1CC=C(C=NO)CC1` (stereo not drawn) [Perillartine], the collision cross section (ion adduct: [M+H]+) stood at 138.73 Å².
On to `c1ccc2c(c1)Nc1ccccc1S2` [Phenothiazine], for which the collision cross section (ion adduct: [M-H]-) is given as 140.54 Å².
The compound `O=C(CCc1ccc(O)cc1)c1c(O)cc(O)cc1O[C@@H]1O[C@H](CO)[C@@H](O)[C@H](O)[C@H]1O` [Phlorizin] displayed a collision cross section (ion adduct: [M-H]-) of 193.11 Å².
Take `C[C@@H]1C/C=C/C=C/C=C/C=C/[C@H](O[C@@H]2O[C@H](C)[C@@H](O)[C@H](N)[C@@H]2O)C[C@@H]2O[C@](O)(C[C@@H](O)C[C@H]3O[C@@H]3/C=C/C(=O)O1)C[C@H](O)[C@H]2C(=O)O` [Pimaricin]: the collision cross section is listed as 261.06 Å² (ion adduct: [M+H]+) and 262.32 Å² (ion adduct: [M-H]-).
For `O=C1C[C@@H](c2ccccc2)Oc2cc(O)cc(O)c21` [Pinocembrin], the collision cross section runs as follows: (ion adduct: [M+H]+) 157.96 Å²; (ion adduct: [M-H]-) 159.74 Å².
Regarding `COc1cc(O)cc(/C=C/c2ccc(O)cc2)c1` [Pinostilbene], the collision cross section is 160.07 Å² (ion adduct: [M+H]+) and 166.26 Å² (ion adduct: [M-H]-).
As to `O=C(/C=C/C=C/c1ccc2c(c1)OCO2)N1CCCCC1` [Piperine], the collision cross section (ion adduct: [M+H]+) amounted to 177.2 Å².
As to `COc1cc(/C=C/C(=O)N2CCC=CC2=O)cc(OC)c1OC` [Piperlongumine], the collision cross section (ion adduct: [M+H]+) turned out to be 179.46 Å².
As for `C[C@]12C=CC(=O)C=C1CC[C@@H]1[C@@H]2C(=O)C[C@@]2(C)[C@H]1CC[C@]2(O)C(=O)CO` [Prednisone], the collision cross section runs as follows: (ion adduct: [M+H]+) 185.04 Å²; (ion adduct: [M-H]-) 191.16 Å².
`CO[C@H]1C=CO[C@@]2(C)Oc3c(C)c(O)c4c(O)c(c(/C=N/N5CCN(C)CC5)c(O)c4c3C2=O)NC(=O)/C(C)=C\C=C/[C@H](C)[C@H](O)[C@@H](C)[C@@H](O)[C@@H](C)[C@H](OC(C)=O)[C@@H]1C` [Rifampicin] showed a collision cross section (ion adduct: [M+H]+) of 284.23 Å² and a collision cross section (ion adduct: [M-H]-) of 284.94 Å².
The compound `C=C(C)[C@H]1Cc2c(ccc3c2O[C@@H]2COc4cc(OC)c(OC)cc4[C@@H]2C3=O)O1` [Rotenone] showed a collision cross section (ion adduct: [M+H]+) of 195.49 Å² and a collision cross section (ion adduct: [M-H]-) of 198.71 Å².
For `NC(=O)c1ccccc1O` [Salicylamide] the same measures were 124.71 Å² and 122.43 Å².
`O=C(O)c1ccccc1O` [Salicylic acid] came in with a collision cross section (ion adduct: [M-H]-) of 121.24 Å².
As to `COc1ccc(-c2cc(=O)c3c(O)cc(O)c(-c4cc(-c5cc(=O)c6c(O)cc(OC)cc6o5)ccc4OC)c3o2)cc1` [Sciadopitysin], the collision cross section runs as follows: (ion adduct: [M+H]+) 235.37 Å²; (ion adduct: [M-H]-) 235.5 Å².
Under “ion adduct: [M-H]-”, `C=C[C@](C)(O)CC[C@@H]1[C@@]2(C)CCCC(C)(C)[C@@H]2CC[C@@]1(C)O` [Sclareol] returned a collision cross section of 178.93 Å².
Regarding `C=C[C@H]1[C@H](O[C@@H]2O[C@H](CO)[C@@H](O)[C@H](O)[C@H]2O)OC=C(C(=O)OC)[C@H]1CC(=O)O` [Secoxyloganin], under “ion adduct: [M-H]-”, the collision cross section turned out to be 190.5 Å².
Take `CC(C)=CCCC1(C)CCC2(C)C3CCC4(C)C(C)C(=O)CCC4C3(C)CCC2(C)C1` (stereo not drawn) [Shionone]: the collision cross section (ion adduct: [M+H]+) was found to be 211.34 Å².
For `COc1cc([C@H]2Oc3cc([C@H]4Oc5cc(O)cc(O)c5C(=O)[C@@H]4O)ccc3O[C@@H]2CO)ccc1O` [Silybin], the collision cross section came to 208.54 Å² (ion adduct: [M+H]+) and 204.63 Å² (ion adduct: [M-H]-).
For the compound `CCC(C)(C)C(=O)O[C@H]1C[C@@H](C)C=C2C=C[C@H](C)[C@H](CC[C@@H]3C[C@@H](O)CC(=O)O3)[C@H]21` [Simvastatin], the collision cross section is 207.6 Å² (ion adduct: [M+H]+) and 205.74 Å² (ion adduct: [M-H]-).
For `COc1cc2oc(-c3ccc(O)cc3)cc(=O)c2c(O)c1C1OC(CO)C(O)C(O)C1OC1OC(CO)C(O)C(O)C1O` (stereo not drawn) [Spinosin] the same measures were 235.99 Å² and 239.41 Å².
Take `Nc1ccc(S(=O)(=O)[N-]c2cnc3ccccc3n2)cc1.[Na+]` [Sulfaquinoxaline sodium]: the collision cross section (ion adduct: [M+H]+) is recorded as 184.69 Å².
With `Cc1noc(NS(=O)(=O)c2ccc(N)cc2)c1C` [Sulfisoxazole], the collision cross section is, setting by setting: (ion adduct: [M+H]+) 162.69 Å²; (ion adduct: [M-H]-) 162.87 Å².
Regarding `COc1cc(C(=O)O)cc(OC)c1O` [Syringic acid], the collision cross section (ion adduct: [M-H]-) was found to be 148.59 Å².
Take `C=CC[C@@H]1/C=C(/C)C[C@H](C)C[C@H](OC)[C@H]2O[C@@](O)(C(=O)C(=O)N3CCCC[C@H]3C(=O)O[C@H](/C(C)=C/[C@@H]3CC[C@@H](O)[C@H](OC)C3)[C@H](C)[C@@H](O)CC1=O)[C@H](C)C[C@@H]2OC` [Tacrolimus]: for the setting “ion adduct: [M-H]-”, the collision cross section is 281.46 Å².
Still for that read-out and setting: with `O=c1[nH]c(=O)n(C2CCCO2)cc1F` (stereo not drawn) [Tegafur] the figure was 142.34 Å².
Regarding `COc1cc(CCC(=O)CC(=O)CCc2ccc(O)c(OC)c2)ccc1O` [Tetrahydrocurcumin], the collision cross section (ion adduct: [M-H]-) came out at 185.55 Å².
Regarding `Cn1c(=O)c2c(ncn2CC(=O)O)n(C)c1=O` [Theophylline-7-acetic acid], the collision cross section (ion adduct: [M+H]+) came out at 152.03 Å².
As to `Cn1c(=O)c2[nH]cnc2n(C)c1=O` [Theophylline], under “ion adduct: [M+H]+”, the collision cross section was 137.12 Å².
`Nc1nc(=S)c2[nH]cnc2[nH]1` [Thioguanine] yielded a collision cross section (ion adduct: [M+H]+) of 132.57 Å² and a collision cross section (ion adduct: [M-H]-) of 128.86 Å².
Regarding `Cn1cncc1[C@@](N)(c1ccc(Cl)cc1)c1ccc2c(c1)c(-c1cccc(Cl)c1)cc(=O)n2C` [Tipifarnib], the collision cross section by setting is: (ion adduct: [M+H]+) 215.34 Å²; (ion adduct: [M-H]-) 215.68 Å².
For the compound `NC[C@H]1O[C@H](O[C@H]2[C@H](O)[C@@H](O[C@H]3O[C@H](CO)[C@@H](O)[C@H](N)[C@H]3O)[C@H](N)C[C@@H]2N)[C@H](N)C[C@@H]1O` [Tobramycin], the collision cross section is 202.65 Å² (ion adduct: [M+H]+) and 203.66 Å² (ion adduct: [M-H]-).
For `O=C(Nc1ccc(Cl)cc1)Nc1ccc(Cl)c(Cl)c1` [Triclocarban] the same measures were 173.83 Å² and 178.67 Å².
`O=P(OCCCl)(OCCCl)OCCCl` [Tris(2-chloroethyl) phosphate] gave a collision cross section (ion adduct: [M+H]+) of 151.08 Å².
Regarding `CCC(=O)c1ccc(O)cc1` [Vanatone], the collision cross section reads like this: (ion adduct: [M+H]+) 130 Å²; (ion adduct: [M-H]-) 131.83 Å².
For `C[C@H]1O[C@@H](O[C@@H]2[C@@H](O)[C@H](O)[C@@H](CO)O[C@H]2c2c(O)cc(O)c3c(=O)cc(-c4ccc(O)cc4)oc23)[C@@H](O)[C@@H](O)[C@@H]1O` [Vitexin-2''-O-rhamnoside] the same measures were 221.54 Å² and 227.62 Å².
On to `COc1cc(O)c2c(c1)oc(=O)c1c3cc(O)c(O)cc3oc21` [Wedelolactone], for which the collision cross section (ion adduct: [M+H]+) is on record as 167.93 Å² and the collision cross section (ion adduct: [M-H]-) came out at 168.67 Å².
For the setting “ion adduct: [M-H]-”, `COc1cc(CCC(C)=O)ccc1O` [Zingerone] had a collision cross section of 146.57 Å².
For the compound `CC(=O)/C=C/c1ccccc1` [trans-4-phenylbut-3-en-2-one], the collision cross section (ion adduct: [M+H]+) was 131.24 Å².
Where the note is “ion adduct: [M+H]+”, `COc1ccc(C=Cc2cc(OC)cc(=O)o2)cc1` [yangonin] displayed a collision cross section of 163.31 Å².
